Measured values published in ChEMBL document CHEMBL5154782, “Discovery of Potent PROTACs Targeting EGFR Mutants through the Optimization of Covalent EGFR Ligands” (J Med Chem, 2022).

What was measured:
HCC827 = assay: Antiproliferative activity against human HCC827 cells expressing EGFR deletion19 mutant assessed as inhibition of cell proliferation incubated for 72 hrs by MTT assay; format: functional, cell-based; details: HCC827, 72 h
NCI-H1975 = assay: Antiproliferative activity against human NCI-H1975 cells expressing EGFR L858R/T790M mutant assessed as inhibition of cell proliferation incubated for 72 hrs by MTT assay; format: functional, cell-based; details: NCI-H1975, 72 h
[1] = system: von Hippel-Lindau disease tumor suppressor/Epidermal growth factor receptor (Homo sapiens), P00533+P40337 [L858R,T790M]; assay: Protac activity at VHL/EGFR L858R/T790M mutant in human NCI-H1975 cells assessed as induction of EGFR degradation at 100 nM incubated for 24 hrs by Western blot analysis relative to control; format: cell-based
[2] = system: von Hippel-Lindau disease tumor suppressor/Epidermal growth factor receptor (Homo sapiens), P00533+P40337 [L858R,T790M]; assay: Protac activity at VHL/[…] cells assessed as induction of EGFR degradation at 100 nM incubated for 24 hrs by Western blot analysis relative to control; format: cell-based
[3] = system: von Hippel-Lindau disease tumor suppressor/Epidermal growth factor receptor (Homo sapiens), P00533+P40337 [L858R,T790M]; assay: Protac activity at VHL/[…] cells assessed as induction of EGFR degradation at 1000 nM incubated for 24 hrs by Western blot analysis relative to control; format: cell-based
[4] = system: von Hippel-Lindau disease tumor suppressor/Epidermal growth factor receptor (Homo sapiens), P00533+P40337 [L858R,T790M]; assay: Protac activity at VHL/EGFR L858R/T790M mutant in human NCI-H1975 cells assessed as induction of EGFR degradation at 1000 nM incubated for 24 hrs by Western blot analysis relative to control; format: cell-based
A-431 = assay: Antiproliferative activity against human A-431 cells expressing EGFR wildtype assessed as inhibition of cell proliferation incubated for 72 hrs by MTT assay; format: functional, cell-based; details: A-431, 72 h

| Compound | IC50 (HCC827) [nM] | IC50 (NCI-H1975) [nM] | Activity [1] [%] | Activity [2] [%] | Activity [3] [%] | Activity [4] [%] | IC50 (A-431) [nM] |
| --- | --- | --- | --- | --- | --- | --- | --- |
| COc1cc(N(C)CCN(C)C)c(NC(=O)/C=C/CN(C)CCN(C)C(=O)CCCCCC(=O)N[C@H](C(=O)N2C[C@H](O)C[C@H]2C(=O)NCc2ccc(-c3scnc3C)cc2)C(C)(C)C)cc1Nc1nccc(-c2cn(C)c3ccccc23)n1 | 140 | 1470 | < 20 | < 20 | 25 | < 20 | – |
| C=CC(=O)Nc1cc(Nc2nccc(-c3cn(C)c4ccccc34)n2)c(OC)cc1N(CCCCCCC(=O)NCCCCCCC(=O)N[C@H](C(=O)N1C[C@H](O)C[C@H]1C(=O)NCc1ccc(-c2scnc2C)cc1)C(C)(C)C)CCN(C)C | 110 | 730 | < 20 | < 20 | < 20 | < 20 | – |
| C=CC(=O)Nc1cc(Nc2nccc(-c3cn(C)c4ccccc34)n2)c(OC)cc1N(CCCCCCC(=O)N[C@H](C(=O)N1C[C@H](O)C[C@H]1C(=O)NCc1ccc(-c2scnc2C)cc1)C(C)(C)C)CCN(C)C | 75 | 760 | < 20 | < 28 | 34 | < 20 | 1550 |
| COc1cc(N(C)CCN(C)C)c(NC(=O)/C=C/CN(C)CCCCCCCC(=O)N[C@H](C(=O)N2C[C@H](O)C[C@H]2C(=O)NCc2ccc(-c3scnc3C)cc2)C(C)(C)C)cc1Nc1nccc(-c2cn(C)c3ccccc23)n1 | 67 | 640 | < 20 | < 20 | 25 | < 20 | – |
| C=CC(=O)Nc1cc(Nc2nccc(-c3cn(C)c4ccccc34)n2)c(OC)cc1N(CCCCCCC(=O)NCCOCCOCC(=O)N[C@H](C(=O)N1C[C@H](O)C[C@H]1C(=O)NCc1ccc(-c2scnc2C)cc1)C(C)(C)C)CCN(C)C | 683 | 800 | < 20 | 23 | 25 | < 20 | – |
| COc1cc(N(C)CCN(C)C)c(NC(=O)/C=C/CN(C)CCN(C)C(=O)CCCC(=O)N[C@H](C(=O)N2C[C@H](O)C[C@H]2C(=O)NCc2ccc(-c3scnc3C)cc2)C(C)(C)C)cc1Nc1nccc(-c2cn(C)c3ccccc23)n1 | 150 | 2760 | – | – | – | – | – |
| CN1CCN(c2ccc(Nc3ncc4nc(Nc5ccccc5)n(C5CCCC5)c4n3)cc2)CC1 | 0.93 | 342 | – | – | – | – | – |

Further lines, with some results ahead:

| IC50 (HCC827) [nM] | IC50 (NCI-H1975) [nM] | Compound | Activity [1] [%] | Activity [2] [%] | Activity [3] [%] | Activity [4] [%] | IC50 (A-431) [nM] |
| --- | --- | --- | --- | --- | --- | --- | --- |
| 2.19 | 360 | C=CC(=O)N1CCC(n2c(Nc3ccccc3)nc3cnc(Nc4ccc(N5CCN(C)CC5)cc4)nc32)CC1 | – | – | – | – | – |
| 2.48 | 1170 | CCC(=O)N1CCC[C@H](n2c(Nc3ccccc3)nc3cnc(Nc4ccc(N5CCN(C)CC5)cc4)nc32)C1 | – | – | – | – | – |
| 1.16 | 290 | C=CC(=O)N1CC[C@@H](n2c(Nc3ccccc3)nc3cnc(Nc4ccc(N5CCN(C)CC5)cc4)nc32)C1 | – | – | – | – | – |
| 3.05 | 290 | C=CC(=O)N1CCC(n2c(Nc3ccccc3)nc3cnc(Nc4ccc(N5CCN(C)CC5)nc4)nc32)CC1 | – | – | – | – | – |
| 0.38 | 41 | C=CC(=O)Nc1cccc(-n2c(Nc3ccccc3)nc3cnc(Nc4ccc(N5CCN(C)CC5)cc4)nc32)c1 | – | – | – | – | – |
| 1.83 | 41 | C=CC(=O)N1CCC[C@H](n2c(Nc3ccccc3)nc3cnc(Nc4ccc(N5CCN(CCCCCCCC(=O)N[C@H](C(=O)N6C[C@@H](O)C[C@H]6C(=O)N[C@@H](C)c6ccc(-c7scnc7C)cc6)C(C)(C)C)CC5)cc4)nc32)C1 | – | – | – | – | – |
| 768 | 2370 | C=CC(=O)Nc1cc(Nc2nccc(-c3cn(C)c4ccccc34)n2)c(OC)cc1N(C)CCN(C)CC(=O)NCCOCCOCC(=O)N[C@H](C(=O)N1C[C@H](O)C[C@H]1C(=O)NCc1ccc(-c2scnc2C)cc1)C(C)(C)C | – | – | – | – | – |
| 1.77 | 266 | C=CC(=O)N1CCC[C@@H](n2c(Nc3ccccc3)nc3cnc(Nc4ccc(N5CCN(C)CC5)cc4)nc32)C1 | – | – | – | – | – |
